Test results as given in ChEMBL document CHEMBL4007490, “New hydrazine and hydrazide quinoxaline 1,4-di-N-oxide derivatives: In silico ADMET, antiplasmodial and antileishmanial activity” (Bioorg Med Chem Lett, 2017).

Assays:
[1] = test system: Plasmodium falciparum; assay: Antiplasmodial activity against chloroquine-sensitive/sulfadoxine-resistant Plasmodium falciparum 3D7 by [3H]-hypoxanthine incorporation assay; assay type: functional
[2] = test system: Leishmania infantum; assay: Antileishmanial activity against axenic amastigote form of Leishmania infantum MHOM/MA/67/ITMAP-263 assessed as parasite growth inhibition after 72 hrs by MTT assay; assay type: functional; conditions: MHOM/MA/67/ITMAP-263, 72 h
[3] = test system: Plasmodium falciparum; assay: Antiplasmodial activity against chloroquine/cycloguanil-resistant Plasmodium falciparum FCR3 by [3H]-hypoxanthine incorporation assay; assay type: functional; conditions: FCR-3/Gambia
[4] = Selectivity index, ratio of CC50 for human HepG2A16 cells to IC50 for chloroquine/cycloguanil-resistant Plasmodium falciparum FCR3; assay type: toxicity; conditions: read-out: Ratio CC50/IC50
[5] = Selectivity index, ratio of CC50 for human HepG2A16 cells to IC50 for axenic amastigote form of Leishmania infantum MHOM/MA/67/ITMAP-263; assay type: toxicity; conditions: read-out: Ratio CC50/IC50
[6] = Cytotoxicity against human HepG2A16 cells after 48 hrs by MTT assay; assay type: cell-based

For `Cc1c(C)[n+]([O-])c2cc(Cl)ccc2[n+]1[O-]`, the IC50 [1] was greater than 100 µM, the IC50 [2] was greater than 100 µM and the IC50 [3] was greater than 100 µM. It also gave a selectivity ratio [4] of less than 2.28, a selectivity ratio [5] of less than 2.28 and a CC50 at 48 h [6] of 228 µM.

For `Cc1c(/C=N/Nc2ccc(C(=O)O)cc2)[n+]([O-])c2ccccc2[n+]1[O-]`, the IC50 [1] was greater than 100 µM, the IC50 [2] was greater than 100 µM and the IC50 [3] was greater than 100 µM. It also gave a selectivity ratio [4] of less than 3.72, a selectivity ratio [5] of less than 3.72 and a CC50 at 48 h [6] of 373 µM.

Work on `Cc1c(/C=N/Nc2ccccc2)[n+]([O-])c2ccccc2[n+]1[O-]` yielded an IC50 [1] greater than 100 µM, an IC50 [2] greater than 100 µM and an IC50 [3] greater than 100 µM. It also gave a selectivity ratio [4] of less than 0.35, a selectivity ratio [5] of less than 0.35 and a CC50 at 48 h [6] of 35.4 µM.

For `Cc1c(/C=N/Nc2cccc(Cl)c2)[n+]([O-])c2ccccc2[n+]1[O-]`, the IC50 [1] was greater than 100 µM, the IC50 [2] was greater than 100 µM and the IC50 [3] was greater than 100 µM. The selectivity ratio [4] was less than 0.47, the selectivity ratio [5] was less than 0.47 and the CC50 at 48 h [6] was 47.3 µM.

With `Cc1c(C(F)(F)F)[n+]([O-])c2ccccc2[n+]1[O-]` the IC50 [1] was 7.9 µM, the IC50 [2] was 30.5 µM and the IC50 [3] was 4.2 µM. The selectivity ratio [4] was 0.42, the selectivity ratio [5] was 0.05 and the CC50 at 48 h [6] was 1.8 µM.

`COc1ccc2c(c1)[n+]([O-])c(/C=N/Nc1ccnc3cc(Cl)ccc13)c(C)[n+]2[O-]` showed an IC50 [1] of 1.4 µM, an IC50 [2] greater than 100 µM and an IC50 [3] of 2.56 µM. It also gave a selectivity ratio [4] greater than 95.3 and a CC50 at 48 h [6] greater than 244 µM.

Compound `Cc1c(C)[n+]([O-])c2ccccc2[n+]1[O-]` has an IC50 [1] greater than 100 µM, an IC50 [2] greater than 100 µM and an IC50 [3] greater than 100 µM. For the same compound, the selectivity ratio [4] was less than 3.21, the selectivity ratio [5] was less than 3.21 and the CC50 at 48 h [6] was 322 µM.

Work on `COc1ccc(C(=O)N/N=C/c2c(C)[n+]([O-])c3ccccc3[n+]2[O-])cc1` yielded an IC50 [1] of 27.8 µM, an IC50 [2] greater than 100 µM and an IC50 [3] of 30 µM. For the same compound, the selectivity ratio [4] was 2.22, the selectivity ratio [5] was less than 0.66 and the CC50 at 48 h [6] was 66.6 µM.

`Cc1ccc(S(=O)(=O)N/N=C/c2c(C)[n+]([O-])c3ccccc3[n+]2[O-])cc1` showed an IC50 [1] of 85.3 µM, an IC50 [2] of 53.4 µM and an IC50 [3] greater than 100 µM. It also gave a selectivity ratio [4] of less than 2.41, a selectivity ratio [5] of 4.51 and a CC50 at 48 h [6] of 241 µM.

For `CC(=O)N/N=C/c1c(C)[n+]([O-])c2ccccc2[n+]1[O-]`, the IC50 [1] was greater than 100 µM, the IC50 [2] was greater than 100 µM and the IC50 [3] was greater than 100 µM. The selectivity ratio [4] was less than 0.87, the selectivity ratio [5] was less than 0.87 and the CC50 at 48 h [6] was 87.2 µM.

`COc1ccc2c(c1)[n+]([O-])c(/C=N/Nc1c(Cl)cc(Cl)cc1Cl)c(C)[n+]2[O-]` showed an IC50 [1] greater than 100 µM, an IC50 [2] greater than 100 µM and an IC50 [3] greater than 100 µM. The selectivity ratio [4] was less than 2.09, the selectivity ratio [5] was less than 2.08 and the CC50 at 48 h [6] was 209 µM.

Compound `Cc1c(/C=N/NC(=O)c2ccncc2)[n+]([O-])c2ccccc2[n+]1[O-]` has an IC50 [1] greater than 100 µM, an IC50 [2] greater than 100 µM and an IC50 [3] greater than 100 µM. The selectivity ratio [4] was less than 0.9, the selectivity ratio [5] was less than 0.9 and the CC50 at 48 h [6] was 90.9 µM.

With `C[C@@H]1[C@H](O)[C@@H](C)/C=C/C=C/C=C/C=C/C=C/C=C/C=C/[C@H](O[C@@H]2O[C@H](C)[C@@H](O)[C@H](N)[C@@H]2O)C[C@@H]2O[C@](O)(C[C@@H](O)C[C@@H](O)[C@H](O)CC[C@@H](O)C[C@@H](O)CC(=O)O[C@H]1C)C[C@H](O)[C@H]2C(=O)O` [AMPHOTERICIN B] the IC50 [2] was 0.05 µM.

`Cc1c(/C=N/NC(=O)c2ccccc2)[n+]([O-])c2ccccc2[n+]1[O-]` gave an IC50 [1] of 55.7 µM, an IC50 [2] of 59.1 µM and an IC50 [3] of 36.5 µM. The selectivity ratio [4] was 1.11, the selectivity ratio [5] was 0.68 and the CC50 at 48 h [6] was 40.7 µM.

Compound `Cc1c(/C=N/Nc2c(Cl)cc(Cl)cc2Cl)[n+]([O-])c2cc(Cl)ccc2[n+]1[O-]` has an IC50 [1] greater than 100 µM, an IC50 [2] greater than 100 µM and an IC50 [3] of 61.1 µM. The selectivity ratio [4] was 0.2, the selectivity ratio [5] was less than 0.12 and the CC50 at 48 h [6] was 12.2 µM.

In the case of `Cc1c(/C=N/Nc2ccnc3cc(Cl)ccc23)[n+]([O-])c2cc(Cl)ccc2[n+]1[O-]`, the IC50 [1] is reported as 0.24 µM, the IC50 [2] is reported as greater than 100 µM and the IC50 [3] is reported as 2.8 µM. For the same compound, the selectivity ratio [4] was greater than 86.1 and the CC50 at 48 h [6] was greater than 241 µM.

`Cc1c(/C=N/Nc2ccc(Cl)c(Cl)c2)[n+]([O-])c2ccccc2[n+]1[O-]` showed an IC50 [1] of 76.7 µM, an IC50 [2] greater than 100 µM and an IC50 [3] of 87.1 µM. It also gave a selectivity ratio [4] of 6.32, a selectivity ratio [5] of less than 5.5 and a CC50 at 48 h [6] of 551 µM.

`Cc1c(/C=N/Nc2c(Cl)cc(Cl)cc2Cl)[n+]([O-])c2ccccc2[n+]1[O-]` gave an IC50 [1] greater than 100 µM, an IC50 [2] greater than 100 µM and an IC50 [3] greater than 100 µM. For the same compound, the selectivity ratio [4] was less than 1.24, the selectivity ratio [5] was less than 1.24 and the CC50 at 48 h [6] was 124 µM.

For `Cc1c(/C=N/NC(=O)c2ccc(Cl)cc2)[n+]([O-])c2ccccc2[n+]1[O-]`, the IC50 [1] was 54.9 µM, the IC50 [2] was 52.3 µM and the IC50 [3] was 34.8 µM. The selectivity ratio [4] was 0.81, the selectivity ratio [5] was 0.54 and the CC50 at 48 h [6] was 28.3 µM.

In the case of `COc1ccc2c(c1)[n+]([O-])c(C)c(C)[n+]2[O-]`, the IC50 [1] is reported as greater than 100 µM, the IC50 [2] is reported as greater than 100 µM and the IC50 [3] is reported as greater than 100 µM. It also gave a selectivity ratio [4] of less than 7.44, a selectivity ratio [5] of less than 7.44 and a CC50 at 48 h [6] of 744 µM.
